Assay results from patent publication US12508278B2, “Lipid nanoparticle compositions and methods of formulating the same” (ModernaTX, Inc., priority 2021, dated 2025).

What was measured:
Format in all cases: physicochemical
[1] = IG (lipid-mRNA adduct impurity) in binary mixtures of RNA and Compound III, ion pair reversed phase HPLC; details: for level of IG compared to control binary mixtures: 1 mM agent; for initial rate of IG formation: 5 mM agent, Compound III binaries
Source text: To detect and quantify the amount of IG present in LNP formulations comprising polynucleotides and lipid, a protocol was developed (FIG. 2) that included (1) extraction of the polynucleotide molecules (e.g. precipitation, liquid: liquid extraction); (2) assessment of integrity (e.g. purity, length) of the isolated polynucleotides by known methods (e.g. fragment analyzer, gel electrophoresis); and (3) analysis of the isolated polynucleotides by HPLC.
(§1) RNA was extracted from the LNP formulation by precipitation in ammonium acetate in isopropanol; resuspended in water to target a final RNA concentration of 0.1 mg/mL; and assessed by fragment analyzer capillary electrophoresis and ion pair reversed phase HPLC (performed on a Thermo DNApac RP 100×2.1 mm column at 65° C., with mobile phases containing 50 mM dibutylammonium acetate and 100 mM triethylammonium acetate in water and acetonitrile). Elution with an acetonitrile gradient provided an RNA separation primarily driven by mRNA length and sensitive to any added hydrophobic elements. Two prominent peaks were apparent on the HPLC chromatogram (FIG. 2), including a “main peak” comprising non-adduct mRNA and an “IG” peak comprising mRNA with one or more covalent modifications. The mass fraction of RNA containing at least one lipid adduct was determined by integrating the area under the curve (AUC) of all RNA peaks (including products shorter than the full-length product, the full-length product, and the hydrophobic modified RNA) and taking the late-eluting region as an area percent of the total peak area.
Compound III was dissolved in ethanol at a concentration of 4 mg/mL, and the RNA diluted in sodium acetate buffer pH 5.5; the RNA and lipids were then mixed in 25% ethanol. Samples were held at 25° C., and the RNA was periodically extracted by precipitation in isopropanol and analyzed by ion pair reversed phase (FIGS. 5 and 6A, data marked by *).

[2] = IG in Compound III LNPs buffered with PBS or Tris
[3] = IG in binary mixtures of RNA and Compound VI, ion pair reversed phase HPLC; details: control binary mixture
Protocol: as §1
To determine if treatment with reducing agents or anti-oxidants confers reductions in the percentage of IG formed in binary mixtures of RNA and Compound VI, binary mixtures were prepared with RNA and Compound VI in which the RNA component was prepared with select reducing agents at 5 mM concentration and the percentage of IG in the resulting binary mixtures was quantified according to the protocol detailed in Example 1. The control binary mixtures of RNA and Compound VI contained IG at ˜55 percent after 1 day, ˜70 percent after 2 days, and ˜80 percent after 13 days. In contrast, treatment of binary mixtures of RNA and Compound VI with select reducing agents conferred IG at ˜45 percent after 1 day, ˜55% after 2 days, and ˜60-70% after 13 days (FIG. 17).

[4] = IG in Compound VI LNPs stored in PBS or Tris; details: 20 mM Tris, 8% sucrose, pH 8 vs 1xPBS pH 7.2, stored at 5 C

O=C(O)CCCC[C@@H]1CCSS1 (racemic) [lipoic acid]
level of IG compared to control binary mixtures ([1]; 25 C, after 18 hours): reduced levels of IG

CCCCCCCCCCCOC(=O)CCCCCN(CCO)CCCCCCCC(=O)OC(CCCCCCCC)CCCCCCCC [Compound III, heptadecan-9-yl 8-((2-hydroxyethyl)(6-oxo-6-(undecyloxy)hexyl)amino)octanoate]
IG formation over time ([1]; chromatographically purified Compound III, up to 99% purity, no detectable N-oxide): still formed IG over time | percentage of IG ([1]; control binary mixture (Example 6), stored at 25 C, after 1 day): ~15% | percentage of IG ([1]; control binary mixture (Example 6), stored at 25 C, after 3 days): ~35% | percentage of IG ([1]; control binary mixture (Example 6), stored at 25 C, after 7 days): ~40% | percentage of IG ([1]; control binary mixture (Example 11), 25 C, after 18 hours): ~20% | percentage of IG ([1]; control binary mixture without agent (Example 7), 25 C, after 18 hours): ~35% | percentage of IG ([1]; control binary mixture without agent (Example 7), after 13 days at 25 C): ~45% | percentage of IG ([1]; control binary mixture, Compound III not pre-treated (Example 5), after 0 days): ~10% | percentage of IG ([1]; control binary mixture, Compound III not pre-treated (Example 5), after 5 days): ~40% | percentage of IG ([1]; control binary mixture, Compound III not pre-treated (Example 5), after 25 days): ~45% | percentage of IG, Tris compared to PBS ([2]; 100 mM Tris-HCl pH 7.4 vs 1xPBS): lower | percentage of IG over time ([2]; buffered with Tris (100 mM Tris-HCl pH 7.4), stored at 5 C or 20 C): around 10%

CCCCCCCCCN(CCCCCCCCC)CCN(CCCCCCCCC)CC(=O)N1CCN(C(=O)CN(CCCCCCCCC)CCCCCCCCC)CC1 [Compound VI]
percentage of IG ([3]; after 1 day): ~55% | percentage of IG ([3]; after 2 days): ~70% | percentage of IG ([3]; after 13 days): ~80% | percentage of IG, Tris compared to PBS [4]: lower

Clc1ccc(C(c2ccc(Cl)cc2)C(Cl)(Cl)Cl)cc1 [DDT, dichlorodiphenyltrichloroethane]
level of IG compared to control binary mixtures ([1]; 25 C, after 18 hours): reduced levels of IG

O[C@H](CS)[C@@H](O)CS [DTE, dithioerythritol]
level of IG compared to control binary mixtures ([1]; 25 C, after 18 hours): reduced levels of IG

O[C@H](CS)[C@H](O)CS [DTT, dithiothreitol]
level of IG compared to control binary mixtures ([1]; 25 C, after 18 hours): reduced levels of IG

CC(=O)N[C@@H](CS)C(=O)O [N-acetyl cysteine]
level of IG compared to control binary mixtures ([1]; 25 C, after 18 hours): reduced levels of IG | initial rate of IG formation [1]: effective at eliminating the fast initial rate of IG formation

O=C(O)CCP(CCC(=O)O)CCC(=O)O [TCEP, tris(2-carboxyethyl)phosphine]
level of IG compared to control binary mixtures ([1]; 25 C, after 18 hours): reduced levels of IG

NCCSSCCN [cystamine]
level of IG compared to control binary mixtures ([1]; 25 C, after 18 hours): reduced levels of IG

N[C@@H](CCC(=O)N[C@@H](CS)C(=O)NCC(=O)O)C(=O)O [glutathione]
level of IG compared to control binary mixtures ([1]; 25 C, after 18 hours): reduced levels of IG

N[C@@H](CCS)C(=O)O [homo cysteine, homocysteine]
level of IG compared to control binary mixtures ([1]; 25 C, after 18 hours): reduced levels of IG

O=S([O-])S(=O)(=O)[O-].[K+].[K+] [potassium metabisulfite]
level of IG compared to control binary mixtures ([1]; 25 C, after 18 hours): reduced levels of IG | initial rate of IG formation [1]: effective at eliminating the fast initial rate of IG formation

[BH4-].[Na+] [sodium borohydrate]
level of IG compared to control binary mixtures ([1]; 25 C, after 18 hours): reduced levels of IG

O=S([O-])S(=O)(=O)[O-].[Na+].[Na+] [sodium metabisulfite]
initial rate of IG formation [1]: effective at eliminating the fast initial rate of IG formation | percentage of IG ([1]; higher concentrations of agent before formulation, removed by dialysis with 20 mM Tris, t=0 h and 24 hours): reduced

O=C([O-])CS.[Na+] [sodium thioglycolate]
level of IG compared to control binary mixtures ([1]; 25 C, after 18 hours): reduced levels of IG

O=S([O-])([O-])=S.[Na+].[Na+] [sodium thiosulfate]
level of IG compared to control binary mixtures ([1]; 25 C, after 18 hours): reduced levels of IG
